Where “and” joins values, the source holds several entries; their conditions need not be identical. Identical values can stand only once.
Legend:
[1] = test system: extracellular glutamate level; assay: superfusion experiments on rat brain slices (striatum), glutamate in superfusate by HPLC; type: cell-based
Procedure: A solution of gabapentin (100 μM) in physiological buffer (composition below) with a pH of 7.4 was prepared and irradiated with ultraviolet light (260 and 330 nanometers) at 37° C. for two hours. As described in Kearney A. S. et al., International Journal of Pharmaceutics, 78 (1992), 25–34, this slowly produces the lactam 8-azaspiro[5,4]decan-9-one. Because of the slow reaction rate, a yield of about 1% is assumed in accordance with Kearney et al. (1992), which corresponds to a 1 μM solution.
The activity of this solution in reducing the extracellular glutamate level was shown by means of superfusion experiments on rat brain slices. Slices with a thickness of 350 μm from the rat striatum were used for this. In each case, two slices were employed in a superfusion chamber with an extremely small dead volume, about 100 μl. Physiological buffer (concentrations in mM: NaCl 121, KCl 1.8, CaCl2, 1.3, MgSO4 1.2, NaHCO3 25, […] 1.2, glucose 11, pH 7.4, 95% O2/5% CO2-saturated) is then passed over them at 37° C. After a preliminary perfusion, which serves in particular to remove tissue particles and amino acids released by the injury to the tissue, superfusate fractions are collected at a flow rate of 400 to 800 μl every five minutes. […] The superfusates obtained are filtered (0.45 μm pore size) and the amino acid concentrations are determined by HPLC. […]

[2] = test system: neuronal intranuclear inclusions; assay: mouse model of Huntington's disease, immunohistochemistry of ubiquitinated neuronal intranuclear inclusions; type: in vivo; settings: for mean hippocampal areas of neuronal intranuclear inclusions / mean neocortical areas of neuronal intranuclear inclusions / mean striatal areas of neuronal intranuclear inclusions: per individual mouse, 100 mg/kg*day, frozen brain sections, 100 mg/kg
Source text: Mice transgenic for exon 1 of the human HD gene (line R 6/2), carrying CAGn=115-156 expansions, develop pronounced neuronal intranuclear inclusions, containing the proteins huntington and ubiquitin prior to the characteristic neurological phenotype with bradykinesia and seizures corresponding to the juvenile type of HD (Davies et al. 1997). The life time of these mice is up to 17 weeks. It was investigated whether gabapentin (GBP) and its derivative gabapentin-lactam (GBP-L, Jehle et al. 2000), may exert neuroprotective effects by using a battery of behavioral tests selected to measure motor aspects of fore-and hindlimb coordination and balance. In a first series of experiments mice were treated with GBP-L (100 mg/kg*day, 8 mice) and vehicle only (B mice) from the 6th week of their life until death using Alzet pumps implanted subcutaneously and delivering the test compounds systemically and continuously for up to four weeks. Empty Alzet pumps were repeatedly replaced. Animals were tested twice weekly by walking on a balance beam (width: 5 and 14 mm, Carter et al. 1999) up to week 15.5. A second series of experiments involved mice again treated with GBP-L (100 mg/kg*clay, 7 mice) and mice treated with GBP (100 mg/kg*day, 8 mice) from the 6th week of their life until death with week 17 being the maximum endpoint. In addition, immunohistochemical studies, using a monoclonal mouse antibody raised against ubiquitin, were done to analyse areas of ubiquitinated nuclear inclusions in three brain regions (hippocampus, neocortex and striatum) in a blinded fashion in order to compare mice treated with GBP-L or GBP.
Three mice per group were evaluated. The mean regional area of neuronal intranuclear inclusions was calculated (μm^2) for each mouse. These means were compared between regions and between treatment groups.

[3] = test system: ischemia-induced [^3H]-Glu release; assay: in vitro ischemia model: ischemia-induced [^3H]-Glu release from [^3H]-Gln-loaded hippocampal slices; type: cell-based, rat
Procedure: Rat hippocampus slices 350 μm thick were incubated in 3 ml of medium at 37° C. for 60 minutes. The medium contained 2 μM [^3H]-Gln to label the endogenous Gln pool. The slices then synthesized Glu. The slices were washed and then exposed to superfusion with a buffer for 50 minutes. At 5-minute intervals, [^3H]-Glu was extracted by anion exchange chromatography from a total of 15 superfusion samples and was measured by liquid scintillation counting. The fractional rates of [^3H]-Glu release were calculated from the [^3H]-Glu extracted from the superfusion samples and from the tissue slices after the superfusion.
The model of endogenously produced [^3H]-Glu was likewise used to generate ischemic conditions in vitro. To make a slice “quasi ischemic”, oxygen and glucose were replaced by nitrogen and sucrose during the superfusion. Sucrose was used in place of […] glucose in order to maintain the osmolarity of the superfusion fluid. It is known that sucrose cannot be cleaved in vitro to glucose and fructose. Unlike the tests in which the [^3H]-Glu release was induced electrically, and in order to simulate an ischemia as well as possible, the [^3H]-Glu release was carried out during the incubation and superfusion at 37° C.
Slices of 350 μm thickness were incubated at 37° C. for 60 min in 3 ml medium containing 2 μM [^3H]-Gln in order to label endogenous Gln pools. These slices subsequently were synthesizing Glu. The slices were washed and then superfused for 50 min with buffer. [^3H]-Glu was extracted from 15 5-min-superfusion samples and from the slices by anion-exchange chromatography and measured by liquid scintillation counting. Fractional rates of [^3H]-Glu release were calculated from extracted [^3H]-Glu in the superfusion samples and in the tissue slices obtained after superfusion.
To reproduce in vitro ischemic conditions the model of endogenously formed [^3H]-Glu was also used. To make a slice “quasi-ischemic”, oxygen was replaced by nitrogen and glucose was replaced by sucrose during superfusion. Sucrose was used instead of glucose in order to maintain the osmolarity of the superfusion fluid without being cleaved into glucose and fructose in vitro. At variance to the experiments on electrically evoked [^3H]-Glu release and in order to mimic ischemia as close as possible the experiments on ischemia-induced [^3H]-Glu release were performed at 37° C. throughout incubation and superfusion.
To assess the potency of glibenclamide concentration-inhibition curves of GBP-L on ischemia-induced [^3H]-Glu efflux were obtained in the absence and presence of 0.1 μM glibenclamide (see Jehle et al. 2000).

[4] = test system: electrically evoked release of [^3H]-NA; assay: electrically evoked release of [^3H]-NA from human brain slices; type: cell-based; settings: quasi-physiological release
Source text: Note that the deviations indicate confidence intervals (CI95), not standard errors. In this model, GBP and its lactam seem equipotent. GBP and GBP-L are ineffective on the quasi-physiological, electrically evoked release of [^3H]-NA from both rat and human brain slices (not shown).

[5] = test system: potassium-evoked release of [^3H]-noradrenaline; assay: potassium-evoked release of [^3H]-noradrenaline from rat neocortex slices (superfusion); type: cell-based; settings: rat neocortical slices
Source text: The effects of GBP and GBP-L were compared by a very similar approach using rat and human neocortical slices.
Note that the deviations indicate confidence intervals (CI95), not standard errors.

[6] = O2 replaced by N2, glucose by sucrose, 37° C., 3 μM PDC

| SMILES | difference in glutamate between treated and comparative samples ([1]; gabapentin solution (100 μM) not irradiated, no lactam) | mean hippocampal areas of neuronal intranuclear inclusions [2] | mean neocortical areas of neuronal intranuclear inclusions [2] | mean striatal areas of neuronal intranuclear inclusions [2] | diminution of ischemia-induced [^3H]-Glu efflux [3] [%] | electrically evoked release of [^3H]-NA (in words) [4] | K^+-evoked [^3H]-NA release (in words) [5] | extracellular glutamate concentration found in superfusate ([1]; rat striatum slices flushed with approximately 1 μM solution, control tests 0.24 μM) [µM] | area of neuronal intranuclear inclusions in hippocampus, striatum and neocortex compared to GBP mice (in words) ([2]; three mice per group) | ischemia-induced [^3H]-Glu output (in words) [3, 6] | reduction of ischemia-induced [^3H]-Glu release (area from t=15 min) [3, 6] [%] |
| --- | --- | --- | --- | --- | --- | --- | --- | --- | --- | --- | --- |
| NCC1(CC(=O)O)CCCCC1 [GBP, gabapentin, reference compound] | no difference could be found | 8.78 μm^2 and 8.93 μm^2 and 8.26 μm^2 | 5.91 μm^2 and 5.94 μm^2 and 9.60 μm^2 | 6.43 μm^2 and 7.27 μm^2 and 3.84 μm^2 | 35.5 | ineffective | inhibited similarly | – | – | – | – |
| O=C1CC2(CCCCC2)CN1 [GBP-L, 8-azaspiro[5,4]decan-9-one] | – | 4.47 μm^2 and 4.01 μm^2 and 3.61 μm^2 | 3.70 μm^2 and 2.96 μm^2 and 2.65 μm^2 | 3.52 μm^2 and 4.20 μm^2 and 3.83 μm^2 | – | ineffective | inhibited similarly | 0.12 | markedly and significantly reduced | reduces the neurotoxic [^3H]-Glu output significantly | 42.5 |

Reference: patent publication US6984659B2, “2-pyrrolidinone derivatives substituted at position 4 for reducing the extracellular glutamate level” (priority 1997, dated 2006)
